Where a SMILES comes first, the peptide text is derived from it. [ ]: non-standard residue; d: D form. αMeP = C[C@@]1(C(=O)O)CCCN1
Legend:
[1] = target: Receptor-type tyrosine-protein kinase FLT3 (Homo sapiens, UniProt P36888, ITD); assay type: cell-based, MV4-11
[2] = target: T1, Tyrosine-protein kinase BTK (Homo sapiens, UniProt Q06187)
Description: Inhibition of wild type BTK (unknown origin) stably transfected in HEK293 cells

[3] = target: T1, Tyrosine-protein kinase BTK; remark: listed apart in the source
Description: Inhibition of wild type BTK (unknown origin)

clinical [4] = settings: human
clinical [5] = settings: human, in vivo, po
Description: Oral bioavailability in human

clinical [6] = settings: human, in vivo, po; remark: listed apart in the source
Neuromedin-K receptor = target: T2, Neuromedin-K receptor (Homo sapiens, UniProt P29371)
T2 sequence (P29371 whole entry): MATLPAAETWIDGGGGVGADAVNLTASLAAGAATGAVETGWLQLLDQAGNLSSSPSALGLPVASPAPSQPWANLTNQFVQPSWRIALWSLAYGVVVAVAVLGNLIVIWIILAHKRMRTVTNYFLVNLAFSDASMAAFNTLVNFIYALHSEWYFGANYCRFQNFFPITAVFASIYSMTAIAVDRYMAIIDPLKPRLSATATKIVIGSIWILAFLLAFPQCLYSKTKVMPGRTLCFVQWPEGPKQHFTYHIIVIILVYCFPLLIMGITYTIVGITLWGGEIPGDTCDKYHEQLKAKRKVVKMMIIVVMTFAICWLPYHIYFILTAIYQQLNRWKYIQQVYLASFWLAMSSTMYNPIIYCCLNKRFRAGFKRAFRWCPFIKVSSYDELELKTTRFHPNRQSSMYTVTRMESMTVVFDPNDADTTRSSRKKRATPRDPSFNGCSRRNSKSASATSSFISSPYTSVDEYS
Description: Binding affinity to human recombinant NK3R assessed as inhibition constant

clinical [7] = settings: human; remark: listed apart in the source
[8] = Apparent volume of distribution at steady state in human at 200 mg; assay type: ADME; settings: read-out: Vdss(app)
[9] = Cmax in human at 200 mg; assay type: ADME
[10] = Plasma protein binding in human; assay type: ADME, cell-free; settings: read-out: PPB
[11] = AUC in human; assay type: ADME
[12] = Cmax in human; assay type: ADME
CYP3A4 = CYP3A4 (Homo sapiens, UniProt P08684); assay: Inhibition of CYP3A4 (unknown origin) at 10 uM relative to control; assay type: ADME
in vivo = settings: mouse, iv, 3 mg/kg

Sequence of Receptor-type tyrosine-protein kinase FLT3 (P36888 whole entry, looked up, change not shown): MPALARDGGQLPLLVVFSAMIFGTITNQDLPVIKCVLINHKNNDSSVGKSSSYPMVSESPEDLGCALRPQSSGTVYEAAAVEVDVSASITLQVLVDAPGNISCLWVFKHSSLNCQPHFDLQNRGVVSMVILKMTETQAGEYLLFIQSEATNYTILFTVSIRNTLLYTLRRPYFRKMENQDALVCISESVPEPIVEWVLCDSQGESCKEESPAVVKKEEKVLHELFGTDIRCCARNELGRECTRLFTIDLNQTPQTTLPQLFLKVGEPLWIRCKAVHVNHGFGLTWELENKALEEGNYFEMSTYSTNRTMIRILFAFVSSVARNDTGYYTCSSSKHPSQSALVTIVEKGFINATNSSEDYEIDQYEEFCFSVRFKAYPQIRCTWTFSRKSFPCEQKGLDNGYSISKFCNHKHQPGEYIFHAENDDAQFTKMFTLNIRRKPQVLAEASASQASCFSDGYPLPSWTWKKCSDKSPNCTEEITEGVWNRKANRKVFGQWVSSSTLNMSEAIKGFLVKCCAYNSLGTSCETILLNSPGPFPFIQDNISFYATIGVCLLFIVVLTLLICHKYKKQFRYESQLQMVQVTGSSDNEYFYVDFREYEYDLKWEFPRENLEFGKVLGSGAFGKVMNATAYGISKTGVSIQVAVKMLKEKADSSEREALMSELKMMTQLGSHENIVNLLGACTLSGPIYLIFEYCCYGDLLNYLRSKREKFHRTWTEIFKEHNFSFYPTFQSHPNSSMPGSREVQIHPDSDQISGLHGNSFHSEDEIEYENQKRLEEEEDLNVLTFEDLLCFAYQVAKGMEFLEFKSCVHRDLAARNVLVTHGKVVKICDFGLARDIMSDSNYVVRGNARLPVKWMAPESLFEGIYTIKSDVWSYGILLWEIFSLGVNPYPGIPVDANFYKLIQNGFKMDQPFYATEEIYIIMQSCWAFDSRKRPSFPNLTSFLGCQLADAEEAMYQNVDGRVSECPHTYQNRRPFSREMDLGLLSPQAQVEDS
T1 sequence (Q06187 whole entry): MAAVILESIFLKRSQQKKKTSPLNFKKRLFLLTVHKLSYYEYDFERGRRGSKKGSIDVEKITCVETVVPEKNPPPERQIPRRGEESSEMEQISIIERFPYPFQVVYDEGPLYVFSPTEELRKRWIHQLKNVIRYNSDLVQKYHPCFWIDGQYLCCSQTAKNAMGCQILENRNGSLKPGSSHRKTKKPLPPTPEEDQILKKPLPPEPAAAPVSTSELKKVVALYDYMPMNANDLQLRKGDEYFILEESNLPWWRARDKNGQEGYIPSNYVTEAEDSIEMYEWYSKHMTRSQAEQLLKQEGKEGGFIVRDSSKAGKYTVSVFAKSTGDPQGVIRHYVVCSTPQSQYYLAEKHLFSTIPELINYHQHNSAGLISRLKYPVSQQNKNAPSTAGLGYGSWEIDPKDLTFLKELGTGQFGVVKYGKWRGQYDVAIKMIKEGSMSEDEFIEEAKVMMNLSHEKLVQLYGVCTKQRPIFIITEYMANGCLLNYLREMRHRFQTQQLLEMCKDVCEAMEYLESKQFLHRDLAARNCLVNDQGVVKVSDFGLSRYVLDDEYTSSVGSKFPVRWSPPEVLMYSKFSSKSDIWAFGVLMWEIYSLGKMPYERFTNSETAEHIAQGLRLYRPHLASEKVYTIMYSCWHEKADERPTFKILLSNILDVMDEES
Sequence of CYP3A4 (P08684 whole entry): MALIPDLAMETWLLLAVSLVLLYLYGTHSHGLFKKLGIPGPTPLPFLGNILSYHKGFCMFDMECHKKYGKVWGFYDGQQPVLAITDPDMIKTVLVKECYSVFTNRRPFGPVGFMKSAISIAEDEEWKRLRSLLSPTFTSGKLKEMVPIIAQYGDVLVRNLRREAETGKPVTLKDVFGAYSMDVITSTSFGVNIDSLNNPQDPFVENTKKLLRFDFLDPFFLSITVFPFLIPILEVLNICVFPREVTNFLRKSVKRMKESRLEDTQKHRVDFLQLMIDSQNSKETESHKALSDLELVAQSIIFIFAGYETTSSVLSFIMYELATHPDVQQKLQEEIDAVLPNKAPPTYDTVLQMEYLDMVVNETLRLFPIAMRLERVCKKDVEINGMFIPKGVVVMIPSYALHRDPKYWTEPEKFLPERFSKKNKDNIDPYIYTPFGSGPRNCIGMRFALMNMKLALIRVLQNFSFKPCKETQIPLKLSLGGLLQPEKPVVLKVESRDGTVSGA

Question: Which IC50 [1] does the source give for `CC(C)(C)c1cc(NC(=O)Nc2ccc(-c3cn4c(n3)sc3cc(OCCCN5CCOCC5)ccc34)cc2)no1` here?
Answer: 0.79 nM

Question: Which IC50 [1] does the source give for `CC(C)(C)c1cc(NC(=O)Nc2ccc(-c3cn4c(n3)sc3cc(OCCN5CCCCC5)ccc34)cc2)no1` here?
Answer: 0.88 nM

Question: Which IC50 [2] does the source give for `COc1ccc(F)cc1C(=O)NCc1ccc(-c2nn([C@H](C)C(F)(F)F)c(N)c2C(N)=O)cc1` here?
Answer: 21.2 nM

Question: And the IC50 [3]?
Answer: 5.69 nM

Question: What about the half-life (clinical [4]) of the same compound?
Answer: 19 h

Question: What about the bioavailability (clinical [5]) of the same compound?
Answer: 85.5%

Question: Which Cmax (clinical [6]) does the source give for `Cc1nsc(-c2nnc3n2CCN(C(=O)c2ccc(F)cc2)[C@@H]3C)n1` [FEZOLINETANT] here?
Answer: 1.5 ng/mL

Question: And the Ki (Neuromedin-K receptor)?
Answer: 21.8 nM

Question: What about the half-life (clinical [4]) of the same compound?
Answer: 9.6 h

Question: And the Vd (clinical [7])?
Answer: 189 L

Question: With `N#CCNC(=O)c1ccc(-c2ccnc(Nc3ccc(N4CCOCC4)cc3)n2)cc1` [MOMELOTINIB] as the compound, how does the Vd [8] read?
Answer: 984 L

Question: And the Cmax [9]?
Answer: 479 ng/mL

Question: And the fraction unbound [10]?
Answer: 0.09

Question: Which results are given for `CCC[C@H](N[C@H]1CCc2cc(F)cc(F)c2C1)C(=O)Nc1cn(C(C)(C)CNCC(C)(C)C)cn1` [NIROGACESTAT]?
Answer: AUC [11]: 3370 ng·h/mL; bioavailability (clinical [5]): 19%; Cmax [12]: 508 ng/mL

Question: For `CC1(C)CCC(C)(C)c2cc(Cn3cccn3)c(/C=C/c3ccc(C(=O)O)cc3)cc21` [PALOVAROTENE], which inhibition at 10 µM (CYP3A4) is on record?
Answer: 99%

Question: With `C=CC(=O)N1C[C@H](Nc2ncnc3[nH]ccc23)CC[C@@H]1C` [RITLECITINIB] as the compound, how does the bioavailability (clinical [5]) read?
Answer: 64%

Question: With `C[C@@]1(C(=O)N[C@@H](CCC(=O)O)C(=O)O)CCCN1C(=O)CN` [TROFINETIDE] (H-Gly-[αMeP]-Glu-OH) as the compound, how does the half-life (in vivo) read?
Answer: 1.5 h

From ChEMBL document CHEMBL6127047, “Nitrogen-containing heterocyclic drug products approved by the FDA in 2023: Synthesis and biological activity” (Eur J Med Chem, 2024)
